From PubChem BioAssay AID2060606 (Molecular Pharmacology Branch, DTP, NCI, 2025)
pIC50: −log10 of the molar value.

Tested on: 922993-354-T-J3-PDC complex spheroids, viability, % test/control
Assay: Anticancer human tumor 922993-354-T-J3-PDC patient-derived endometrial carcinoma cell line growth inhibition [CLK]
Conditions: for pIC50: curve of first compound; for viability, T/C: stronger effect = lower value
Description: A high-throughput screen of multi-cell type tumor spheroids was designed to identify active combinations of […] and targeted small molecules. Complex spheroids include a stromal component modeled by human endothelial cells (HUVEC) and fibroblasts modeled by human mesenchymal stem cells (MSCs). The concentration ranges selected for each drug and investigational agent were based upon clinically achievable concentrations if the clinical Cmax of the agent was known.
Compounds. The drugs and investigational agents: cirtuvivint (SM08502; NSC835563), CC-671 (NSC850746), vemurafenib (NSC761431), tapotoclax (NSC804041), sotorasib (NSC818433), adagrasib (NSC831453), MRTX-1133 (NSC836407), BAY2416964 (NSC825713), copanlisib (NSC816437), inavolisib (NSC800729), abemaciclib (NSC768073), osimertinib (NSC779217), entinostat (NSC756642), eltanexor (KPT-8602, NSC794443), venetoclax (NSC766270), ceralasertib (NSC777638), bortezomib (NSC756655), olaparib (NSC753686), talazoparib (NSC767125), alisertib (NSC759677), peposertib (NSC802822), gemcitabine (NSC613327), 5-fluorouracil (NSC19893), SN-38 (NSC673596), oxaliplatin (NSC266046), paclitaxel (NSC125973), and doxorubicin (NSC123127), were obtained from the National Cancer Institute (NCI) Developmental Therapeutics Program Chemical Repository. The FDA-approved anticancer drug set is available from the Developmental Therapeutics Program at https://dtp.cancer.gov/organization/dscb/obtaining/available plates.htm. […] The stock solutions were prepared in dimethyl sulfoxide (DMSO, Sigma-Aldrich, St. Louis, MO, cat. D2650), except for the platinum complexes which were prepared in saline (Quality Biological, Gaithersburg, MD, cat. 114-055-101), at 800-fold the tested concentration and stored at -70 degrees C prior to their use. All drugs and investigational agents were tested over a range starting from a high concentration at or near the clinical Cmax and decreasing in half-log increments. If the clinical Cmax for an agent had not been determined, the highest concentration tested was 10 microM.
Cell Culture. All cells were maintained in an incubator at 37 degrees C and 5% CO2 with 95% humidity. The PDC lines were cultured according to standard operating procedures established by the NCI PDMR. Briefly, all PDCs were thawed and cultured in Matrigel-coated flasks prepared with a working solution of 1X Ham's F-12 nutrient mix, without supplementation (Invitrogen, Waltham, MA, cat. 11765054), 100 U/mL penicillin-streptomycin (Invitrogen, cat. 15140122), and 2.5% Matrigel (Corning Inc., Corning, NY, cat. 354248) for the first three passages. The 947758-054-R-J2-PDC line was cultured in 6B/Colon 1A media, which includes advanced DMEM/F-12 (Thermo Fisher Scientific, cat. 12634028), 10 mM HEPES (Thermo Fisher Scientific, cat. 15630080), 1X GlutaMAX supplement (Thermo Fisher Scientific, cat. 35050061), 0.1 mg/mL primocin (InvivoGen, cat. ant-pm-2), 10% defined fetal bovine serum, heat inactivated (HyClone Laboratories Inc., cat. SH30070.03HI), 1.25 mM N-Acetyl-L-cysteine (Sigma-Aldrich, cat. A9165), 10 mM nicotinamide (Sigma-Aldrich, cat. N0636), 1X B-27 supplement (Thermo Fisher Scientific, cat. 17504044), 1X N-2 supplement (Thermo Fisher Scientific, cat. 17502048), and 10 microM Y-27632 dihydrochloride (Tocris Bioscience, cat. 1254). The 876862-298-R-J1-PDC was cultured in 6E media, which includes all 6B/Colon 1A media components plus 50% L-WRN conditioned media (ATCC, cat. CRL-3276), 50 ng/mL recombinant human EGF recombinant protein (hEGF; Thermo Fisher Scientific, cat. PHG0311), 10 ng/mL recombinant human fibroblast growth factor 10 (hGFG-10; PeproTech, cat. 100-26), 1 ng/mL recombinant human fibroblast growth factor 2 (hFGF-2; PeproTech, cat. 100-18B), and 1 µM prostaglandin E2 (PGE2; Tocris, cat. 2296). The 227483-062-R1-J1-PDC line was cultured in Panc media, containing all 6E components except hFGF-2, with the addition of 500 nM SB-431542 (Selleckchem, cat. S1067) and 10 nM gastrin (Tocris, cat. 3006). […]

[1] = second compound 0.0316 µM, first compound 0.0316 µM
[2] = second compound 0.0316 µM, first compound 0.1 µM
[3] = second compound 0.0316 µM, first compound 0.316 µM
[4] = second compound 0.0316 µM, first compound 1 µM
[5] = second compound 0.1 µM, first compound 0.0316 µM
[6] = second compound 0.1 µM, first compound 0.1 µM
[7] = second compound 0.1 µM, first compound 0.316 µM
[8] = second compound 0.1 µM, first compound 1 µM
[9] = second compound 0.316 µM, first compound 0.0316 µM
[10] = second compound 0.316 µM, first compound 0.1 µM
[11] = second compound 0.316 µM, first compound 0.316 µM
[12] = second compound 0.316 µM, first compound 1 µM
[13] = second compound 1 µM, first compound 0.0316 µM
[14] = second compound 1 µM, first compound 0.1 µM
[15] = second compound 1 µM, first compound 0.316 µM
[16] = second compound 1 µM, first compound 1 µM
[17] = second compound 3.16 µM, first compound 0.0316 µM
[18] = second compound 3.16 µM, first compound 0.1 µM
[19] = second compound 3.16 µM, first compound 0.316 µM
[20] = second compound 3.16 µM, first compound 1 µM
[21] = second compound 10 µM, first compound 0.0316 µM
[22] = second compound 10 µM, first compound 0.1 µM
[23] = second compound 10 µM, first compound 0.316 µM
[24] = second compound 10 µM, first compound 1 µM
[25] = second compound 0.0316 µM, first compound 0.00316 µM
[26] = second compound 0.0316 µM, first compound 0.01 µM
[27] = second compound 0.1 µM, first compound 0.00316 µM
[28] = second compound 0.1 µM, first compound 0.01 µM
[29] = second compound 0.316 µM, first compound 0.00316 µM
[30] = second compound 0.316 µM, first compound 0.01 µM
[31] = second compound 1 µM, first compound 0.00316 µM
[32] = second compound 1 µM, first compound 0.01 µM
[33] = second compound 3.16 µM, first compound 0.00316 µM
[34] = second compound 3.16 µM, first compound 0.01 µM
[35] = second compound 10 µM, first compound 0.00316 µM
[36] = second compound 10 µM, first compound 0.01 µM
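Further: spheroids exposed to the agents for 7 days before readout.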

CC(Nc1ccc2c(c1)OCCn1cc(N3C(=O)OCC3C(F)F)nc1-2)C(N)=O (stereo unspecified) + CN1CCN(c2cc(C(=O)Nc3cc4cc(-c5cnn(C)c5)ccc4cn3)ccn2)CC1
pIC50 (second compound 0.0316 µM): 5.56
pIC50 (second compound 0.1 µM): 5.95
pIC50 (second compound 0.316 µM): 7.22
pIC50 (second compound 1 µM): > 7.50
pIC50 (second compound 3.16 µM): > 7.50
pIC50 (second compound 10 µM): > 7.50
viability, T/C [1]: 110%
viability, T/C [2]: 105%
viability, T/C [3]: 84.8%
viability, T/C [4]: 67.8%
viability, T/C (second compound 0.0316 µM, first compound 3.16 µM): 48.7%
viability, T/C (second compound 0.0316 µM, first compound 10 µM): 25.6%
viability, T/C [5]: 109%
viability, T/C [6]: 97.6%
viability, T/C [7]: 91%
viability, T/C [8]: 50.3%
viability, T/C (second compound 0.1 µM, first compound 3.16 µM): 34.7%
viability, T/C (second compound 0.1 µM, first compound 10 µM): 27.2%
viability, T/C [9]: 49.6%
viability, T/C [10]: 55%
viability, T/C [11]: 28.7%
viability, T/C [12]: 23.4%
viability, T/C (second compound 0.316 µM, first compound 3.16 µM): 16.8%
viability, T/C (second compound 0.316 µM, first compound 10 µM): 6.83%
viability, T/C [13]: 0.15%
viability, T/C [14]: 0.13%
viability, T/C [15]: 1.42%
viability, T/C [16]: 0.08%
viability, T/C (second compound 1 µM, first compound 3.16 µM): 0.07%
viability, T/C (second compound 1 µM, first compound 10 µM): 1.09%
viability, T/C [17]: 0.09%
viability, T/C [18]: 0.57%
viability, T/C [19]: 0.75%
viability, T/C [20]: 0.83%
viability, T/C (second compound 3.16 µM, first compound 3.16 µM): 1.91%
viability, T/C (second compound 3.16 µM, first compound 10 µM): 1.61%
viability, T/C [21]: 0.09%
viability, T/C [22]: 0.13%
viability, T/C [23]: 1.44%
viability, T/C [24]: 0.18%
viability, T/C (second compound 10 µM, first compound 3.16 µM): 1.19%
viability, T/C (second compound 10 µM, first compound 10 µM): 1.25%

CCN1CCN(Cc2ccc(Nc3ncc(F)c(-c4cc(F)c5nc(C)n(C(C)C)c5c4)n3)nc2)CC1 + CN1CCN(c2cc(C(=O)Nc3cc4cc(-c5cnn(C)c5)ccc4cn3)ccn2)CC1
pIC50 (second compound 0.0316 µM): < 6.00
pIC50 (second compound 0.1 µM): < 6.00
pIC50 (second compound 0.316 µM): > 8.50
pIC50 (second compound 1 µM): > 8.50
pIC50 (second compound 3.16 µM): > 8.50
pIC50 (second compound 10 µM): > 8.50
viability, T/C [25]: 106%
viability, T/C [26]: 110%
viability, T/C [1]: 87.4%
viability, T/C [2]: 83.3%
viability, T/C [3]: 58.9%
viability, T/C [4]: 57.3%
viability, T/C [27]: 88.1%
viability, T/C [28]: 91.8%
viability, T/C [5]: 75.8%
viability, T/C [6]: 66.4%
viability, T/C [7]: 58.8%
viability, T/C [8]: 60.5%
viability, T/C [29]: 46.5%
viability, T/C [30]: 37%
viability, T/C [9]: 34.4%
viability, T/C [10]: 37%
viability, T/C [11]: 36.4%
viability, T/C [12]: 38.6%
viability, T/C [31]: 0.13%
viability, T/C [32]: 0.79%
viability, T/C [13]: 0.77%
viability, T/C [14]: 0.13%
viability, T/C [15]: 1.01%
viability, T/C [16]: 0.64%
viability, T/C [33]: 0.1%
viability, T/C [34]: 1.24%
viability, T/C [17]: 0.11%
viability, T/C [18]: 0.13%
viability, T/C [19]: 0.16%
viability, T/C [20]: 0.84%
viability, T/C [35]: 0.13%
viability, T/C [36]: 0.16%
viability, T/C [21]: 1.7%
viability, T/C [22]: 0.15%
viability, T/C [23]: 2.3%
viability, T/C [24]: 2.5%

COc1c(OCCCN2CCOCC2)ccc2c3n(c(=NC(=O)c4cnc(N)nc4)nc12)CCN3 + CN1CCN(c2cc(C(=O)Nc3cc4cc(-c5cnn(C)c5)ccc4cn3)ccn2)CC1
pIC50 (second compound 0.0316 µM): 6.83
pIC50 (second compound 0.1 µM): 6.82
pIC50 (second compound 0.316 µM): > 8.50
pIC50 (second compound 1 µM): > 8.50
pIC50 (second compound 3.16 µM): > 8.50
pIC50 (second compound 10 µM): > 8.50
viability, T/C [25]: 112%
viability, T/C [26]: 116%
viability, T/C [1]: 86.5%
viability, T/C [2]: 59.7%
viability, T/C [3]: 32.2%
viability, T/C [4]: 9.62%
viability, T/C [27]: 91.7%
viability, T/C [28]: 99.9%
viability, T/C [5]: 89.9%
viability, T/C [6]: 58.1%
viability, T/C [7]: 32.4%
viability, T/C [8]: 12.1%
viability, T/C [29]: 48.1%
viability, T/C [30]: 47.9%
viability, T/C [9]: 39.8%
viability, T/C [10]: 18.8%
viability, T/C [11]: 6.2%
viability, T/C [12]: 2.87%
viability, T/C [31]: 0.13%
viability, T/C [32]: 1.13%
viability, T/C [13]: 0.12%
viability, T/C [14]: 0.08%
viability, T/C [15]: 1.11%
viability, T/C [16]: 0.77%
viability, T/C [33]: 0.42%
viability, T/C [34]: 0.12%
viability, T/C [17]: 0.38%
viability, T/C [18]: 0.15%
viability, T/C [19]: 1.16%
viability, T/C [20]: 1.38%
viability, T/C [35]: 0.08%
viability, T/C [36]: 0.15%
viability, T/C [21]: 1.41%
viability, T/C [22]: 0.15%
viability, T/C [23]: 3.12%
viability, T/C [24]: 2.42%
